Molecular target: T1, AgORco+AgOR10 (Anopheles gambiae, UniProt Q7QCC7)
T1 construct: expressed in transfected cells
T1 sequence (Q7QCC7 1-478): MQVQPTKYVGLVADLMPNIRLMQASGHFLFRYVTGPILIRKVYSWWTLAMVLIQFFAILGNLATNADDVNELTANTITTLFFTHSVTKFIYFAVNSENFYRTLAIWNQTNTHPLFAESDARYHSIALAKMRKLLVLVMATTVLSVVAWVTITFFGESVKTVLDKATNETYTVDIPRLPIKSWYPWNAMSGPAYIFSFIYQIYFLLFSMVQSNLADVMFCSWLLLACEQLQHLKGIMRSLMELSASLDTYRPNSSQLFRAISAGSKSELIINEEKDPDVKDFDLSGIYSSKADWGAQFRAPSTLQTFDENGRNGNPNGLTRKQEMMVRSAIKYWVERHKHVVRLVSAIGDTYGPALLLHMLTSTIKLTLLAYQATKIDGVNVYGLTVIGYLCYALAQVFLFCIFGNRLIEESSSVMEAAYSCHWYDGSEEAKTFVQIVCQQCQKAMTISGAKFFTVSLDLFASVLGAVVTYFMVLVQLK
Test: Fluo-4 Ca2+ imaging, HEK293 cells expressing Orco+AgOR10
Assay type: cell-based
Set-up: Orco 10 + Orco Angatonist % Reduction / Orco 10 + Orco Agonist % of control: concentration or dose not given beside the values
Settings: for Orco 10 + Orco Angatonist % Reduction: antagonist mode; for Orco 10 + Orco Potentiator % increase: potentiator mode
From the text: For transient transfections, ORs were cloned into pCl (Promega) and transfected into Flp-In™ T-REx™293 cell lines (Invitrogen) with Fu GENE6 (Roche). For the creation of stable cell lines, a cell culture expression vector capable of expressing Orco in conjunction with a conventional OR, pcDNA5/FRT/TO (Invitrogen) was modified to create two individual expression cassettes each under the control of a separate CMV/Tet02 promoter and a BGH poly-adenylation signal. Cells (as above) were transfected with the modified pcDNA5 plasmid along with POG44 (a Flp recombinase expression plasmid) to facilitate site-specific recombination. Stable cell lines were selected using Hygromycin B (Invitrogen). Cells were maintained in DMEM (Invitrogen) supplemented with 10% Tetracycline-free FBS (HyClone) and 15 ng/ml Blasticidin. For fluorometric Ca2+ measurements, stable lines expressing ORs of interest were seeded at 20,000 cells/well in black wall, poly-lysine coated 384-well cell culture plates (Greiner) and treated with […] tetracycline (Sigma) overnight to induce OR expression. Cells were dye-loaded with 1.8 uM Fluo-4 AM (Molecular Probes), 2.5 mM Probenecid (Molecular Probes) in assay buffer (20 mM HEPES, IX HBSS) for 45 minutes at 37° C. in 5% CO2 prior to each assay. Ca^2+ mobilization was assayed in an FDSS6000 (Hamamatsu). Baseline readings were taken for 20 s before automated addition of compound previously diluted in DMSO and assay buffer. Ratios were described as Maximum/Minimum response and each response was normalized to the maximum responder.
As part of an ongoing, cell based calcium imaging screen for novel small-molecule modulators of AgORs that might disrupt olfactory-driven mosquito behaviors (Rinker et al manuscript in preparation), the inventors identified a number of compounds that activated AgOR10+AgORco-expressing human embryonic kidney (HEK293) cells. One of these compounds, (FIG. 3 A) denoted here as VUAA1, elicited activity consistent with allosteric agonism and was pursued for its novel properties. The identity of VUAA1 was verified using high-resolution mass spectrometry (HRMS) as well as ^1H and ^13C NMR. […] As AgORco was the common element among these functional responses, the inventors postulated that VUAA1 was a potential AgORco agonist.

| Structure (SMILES) | Orco 10 + Orco Angatonist % Reduction (Orco 10 + Orco) [%] | also measured |
| --- | --- | --- |
| O=C(CSc1nnc(-c2cccnc2)n1Cc1ccco1)N1c2ccccc2Sc2ccccc21 [drawing 490] | 46.34 |  |
| Cc1ccc(Nc2nc(CSc3nnc(-c4cccnc4)n3-c3ccccc3F)cs2)cc1 | 47.91 |  |
| CCOC(=O)c1cccc(NC(=O)CSc2nnc(CNc3ccc(C)cc3)n2CC)c1 | 62.21 |  |
| CCOC(=O)CN(C(=O)CSc1nnc(CNc2ccc(F)cc2)n1CC)c1ccc(F)cc1 | 8.24 |  |
| CC(C)c1ccccc1-n1c(SCC(=O)N2CCN(c3ccccc3)CC2)nnc1-c1cccnc1 | 42.29 |  |
| CCn1c(COc2ccc3c(c2)CCCC3)nnc1SCC(=O)Nc1ccc(C(=O)OC)cc1 |  | Orco 10 + Orco Potentiator % increase (Orco 10 + Orco): 18.19% |
| N#Cc1ccc(CSc2nnc(-c3cccnc3)n2-c2ccccc2)cc1 | 20.08 |  |
| CCn1c(SCCC(=O)O)nnc1-c1cccnc1 |  | Orco 10 + Orco Potentiator % increase (10 + Orco): 15.74% |
| C=CCn1c(SCc2cccc3ccccc23)nnc1-c1cccnc1 | 13.43 |  |
| Cc1ccc(-n2c(SCC(=O)NCc3ccc4c(c3)OCO4)nnc2-c2cccnc2)c(C)c1 | 31.14 |  |
| COc1cc(Cl)c(C)cc1NC(=O)CSc1nnc(-c2cccnc2)n1Cc1ccco1 | 25.31 |  |
| O=C(CSc1nnc(-c2cccnc2)n1-c1ccc(SC(F)F)cc1)N1CCCc2ccccc21 | 24.77 |  |
| CCn1c(COc2ccc(C)cc2)nnc1SCC(=O)Nc1cc(OC)ccc1OC | 59.64 |  |
| C=CCn1c(SCc2nc(N)nc(N(C)C)n2)nnc1-c1cccnc1 |  | Orco 10 + Orco Potentiator % increase (Orco 10 + Orco): 17.15% |
| CCn1c(CNC(=O)c2ccco2)nnc1SCC(=O)Nc1cc(C(F)(F)F)ccc1Cl | 15.97 |  |
| Cc1ccc(-n2c(SCC(=O)NCc3ccco3)nnc2-c2cccnc2)c(C)c1 | 15.51 |  |
| CCn1c(SCC(=O)Nc2cc(C)ccc2C)nnc1-c1cnccn1 |  | Orco 10 + Orco Potentiator % increase (Orco 10 + Orco): 21.48% |
| Cc1ccccc1-n1c(SC(C)C(N)=O)nnc1-c1cccnc1 (stereo not drawn) |  | Orco 10 + Orco Potentiator % increase (Orco 10 + Orco): 16.98% |
| CCOc1ccccc1-n1c(SCC(=O)N2CCCc3ccccc32)nnc1-c1cccnc1 | 29.87 |  |

| Structure (SMILES) | Orco 10 + Orco Angatonist % Reduction (Orco 10 + Orco) [%] | also measured |
| --- | --- | --- |
| O=C(CSc1nnc(-c2cccnc2)n1Cc1ccco1)c1ccc(Br)cc1 | 7.93 |  |
| CCc1ccc(NC(=O)CSc2nnc(-c3cccs3)n2CC)cc1 | 32.93 |  |
| CCn1c(SCC(=O)Nc2ccc3c(c2)OCCO3)nnc1-c1c[nH]c2ccccc12 | 17.90 |  |
| CCn1c(CNc2ccc(F)cc2)nnc1SCC(=O)N1CCCc2ccccc21 | 18.47 |  |
| Fc1ccc(CSc2nnc(-c3cccnc3)n2Cc2ccco2)cc1 | 16.64 |  |
| CCn1c(COc2ccccc2)nnc1SCC(=O)Nc1cc(OC)ccc1OC | 38.62 |  |
| Cc1ccccc1-n1c(SCc2csc(Nc3ccccc3)n2)nnc1-c1cccnc1 | 56.98 |  |
| CCOc1ccc(-n2c(SCc3cc(=O)oc4cc(C)c(C(C)C)cc34)nnc2-c2cccnc2)cc1 | 48.28 |  |
| CCn1c(CNC(=O)COc2ccc(C(C)C)cc2)nnc1SCC(=O)Nc1ccccc1 | 13.06 |  |
| CCc1cccc(CC)c1NC(=O)CSc1nnc(C(C)C)n1CC |  | Orco 10 + Orco Potentiator % increase (10 + Orco): 13.90% |
| CCn1c(CNC(=O)COc2ccc(C(C)C)cc2)nnc1SCC(=O)Nc1ccccc1C(C)C | 44.74 |  |
| CCn1c(SCC(=O)Nc2ccc(N(C)C)cc2)nnc1-c1cccc(C)c1 | 29.54 |  |
| CCn1c(COc2cccc(OC)c2)nnc1SCC(=O)Nc1ccccc1C(=O)OC | 72.23 |  |
| CCOc1ccc(-n2c(SCc3cc(=O)oc4cc(C)ccc34)nnc2-c2cccnc2)cc1 | 12.48 |  |
| CCn1c(CNC(=O)COc2ccc(C(C)C)cc2)nnc1SCC(=O)Nc1cc(F)ccc1C | 31.15 |  |
| CC(C)c1ccccc1-n1c(SCc2cc(=O)oc3ccc4ccccc4c23)nnc1-c1cccnc1 | 26.15 |  |
| CCOC(=O)c1c(NC(=O)CSc2nnc(-c3cccnc3)n2Cc2ccco2)sc(C)c1C | 30.44 |  |
| Clc1ccccc1CSc1nnc(-c2cccnc2)n1Cc1ccco1 | 33.76 |  |
| CCCn1c(SCC(=O)NCCc2ccccc2)nnc1-c1cccnc1 |  | Orco 10 + Orco Potentiator % increase (10 + Orco): 12.58% |

| Structure (SMILES) | Orco 10 + Orco Angatonist % Reduction (Orco 10 + Orco) [%] | also measured |
| --- | --- | --- |
| c1ccc(CSc2nnc(-c3cccnc3)n2Cc2ccccc2)cc1 | 16.73 |  |
| CCn1c(SCC(=O)Nc2ccc(OCc3ccccc3)cc2)nnc1-c1ccco1 | 28.44 |  |
| CCn1c(COc2cccc(OC)c2)nnc1SCC(=O)Nc1cc(OC)ccc1OC | 30.79 |  |
| CCOC(=O)CN(C(=O)CSc1nnc(CNc2ccc(C)cc2C)n1CC)c1ccccc1 | 57.34 |  |
| Cc1ccc(-n2c(SCC(=O)N3CCCc4ccccc43)nnc2-c2cccnc2)c(C)c1 | 26.04 |  |
| O=C(CSc1nnc(-c2cccnc2)n1-c1ccccc1)NCc1ccc2c(c1)OCO2 |  | Orco 10 + Orco Potentiator % increase (Orco 10 + Orco): 16.29% |
| CCn1c(COc2ccc(OC)cc2)nnc1SCC(=O)Nc1cc(OC)ccc1OC | 7.54 |  |
| CCn1c(SCC(=O)Nc2ccccc2C(=O)OC)nnc1-c1cccc(C)c1 | 16.03 |  |
| Cc1ccc(Nc2nc(CSc3nnc(-c4cccnc4)n3-c3ccccc3C)cs2)cc1 | 52.47 |  |
| CCN(CC)S(=O)(=O)c1ccc(-c2nnc(SCC(=O)N3c4ccccc4CC3C)n2CC)cc1 (stereo not drawn) | 31.53 |  |
| O=C(CSc1nnc(-c2cccnc2)n1Cc1ccco1)N1c2ccccc2Sc2ccccc21 [drawing 497] | 53.70 |  |
| CCn1c(SCC(=O)N2c3ccccc3CCc3ccccc32)nnc1-c1ccc(OC)cc1 | 41.48 |  |
| COc1cc(Cl)c(C)cc1CSc1nnc(-c2cccnc2)n1Cc1ccco1 | 28.40 |  |
| CCOC(=O)CN(C(=O)CSc1nnc(COc2ccc(OC)cc2)n1CC)c1ccccc1 | 49.09 |  |
| Clc1ccc(CSc2nnc(-c3cccnc3)n2Cc2ccco2)c(Cl)c1 | 49.50 |  |
| O=C(CSc1nnc(-c2cccnc2)n1-c1ccccc1)c1c[nH]c2ccccc12 |  | Orco 10 + Orco Potentiator % increase (Orco 10 + Orco): 13.63% |
| CCn1c(SCC(=O)Nc2ccc(OC)cc2)nnc1-c1ccc2[nH]c(C)c(C)c2c1 | 24.94 |  |
| CCn1c(CNC(=O)COc2ccc(C(C)C)cc2)nnc1SCC(=O)Nc1ccccc1F | 11.35 |  |
| CCn1c(SCC(=O)N2c3ccccc3CCc3ccccc32)nnc1-c1ccco1 | 13.40 |  |
